Experimental data reported in US7547687B2, “Therapeutic treatment methods” (priority 2002, dated 2009).

Tested on: U937 human promonocytic leukemia cells
Assay: Microarray analysis of transcript levels in PMA-treated U937 cells exposed to BrEA
Assay type: cell-based
Conditions: for Ratio of BrEA treated cells compared to control cells (transcript level): 10 μM BrEA, PMA-treated U937 cells
Description: Modulation of transcription. The effect of 16α-bromoepiandrosterone (“BrEA”) on transcript levels in cells in vitro was studied using a microarray to allow simultaneous monitoring of the expression of many genes to allow detailed analysis of the molecular pathways involved in biological responses to the compound.
In general, microarray technology works by covalently linking short DNA sequences that are complementary to the transcripts of many different genes on a single slide or array chip. mRNAs from test and control samples are generated and labeled with one or more colored fluorescent dyes or probes. The probes are hybridized with the array, which is then scanned by laser. The color and intensity of the fluorescent signal at each spot denotes relative expression level of each gene. The capacity of other F1Cs described herein, e.g., a F1C in compound group 1, 2, 3, 4 or 5, to modulate gene expression is characterized in a similar manner.
The array used in the experiment described below, contained about 12,000 known genes. The experiment used U937 human promonocytic leukemia cells that differentiate to monocyte/macrophage cells in the presence of phorbol-12-myristate-13-acetate (“PMA”). The U937 cells were PMA treated and then exposed to BrEA for 1 hr, 2 hrs, or 4 hrs, followed by bacterial lipopolysaccharide (“LPS”) stimulation for 1 hr, 2 hrs or 4 hrs. The level of transcripts of the genes on the array was measured at the time points using RNA prepared from BrEA-treated and control (no BrEA) cells. U937 cells were plated at 1×10^5 cells/mL in the presence of 3 ng/mL PMA (Sigma, Catalog #P-8139) for 48 hrs. Cells were then treated with either 10 μM BrEA or DMSO (vehicle) for 1 hr, 2 hr, and 4 hrs. At each time point, cells were harvested and total RNA was extracted using Qiagen Rneasy kit according to manufacturer's specification. Total RNA samples were then analyzed by Mergen Ltd. (San Leandro, Calif. www.mergen.com) to perform microarray assay.
For the microarray assay, Dnase-treated total RNA (20 micrograms) was reverse-transcribed using an oligo[(dT)24 T7 promoter]65 primer (consisting of the nucleotide binding sequence for the T7 RNA polymerase followed by 24 thymidine nucleotides). This was followed by second strand synthesis. The reaction mixture was then treated with Rnase I to digest the remaining RNA. The double-stranded cDNA was phenol-chloroform extracted and used as template for in vitro transcription (T7 MEGAscript, Ambion, Inc.) to generate biotin-labeled cRNA probes. These probes were hybridized overnight at 30° C. with continuous agitation to Mergen's ExpressChip HO5 DNA Microarray System (catalog number HO5-001) containing 12,000 genes. The arrays were then washed, and hybridized probes were detected using Mergen's cyanine-3 fluorescent dye-conjugated protein. Chips were imaged using an Affymetrix 417-418 form Affymetrix/Genetic MicroSystems (www.affymetrix.com) and spot intensity was quantitated using ImaGenefrom BioDiscovery Inc. .______
The up-regulation of many of these genes most apparent at 4 hr after treatment, at which time roughly 700 genes were within the above criteria. Some examples are shown in the following list. The ratios given in the list are from BrEA treated cells compared to control cells not treated with BrEA.

C[C@]12CC[C@H](O)C[C@@H]1CC[C@@H]1[C@@H]2CC[C@]2(C)C(=O)[C@H](Br)C[C@@H]12 [BrEA, 16α-bromoepiandrosterone]
number of genes up-regulated (at least two-fold higher than control and significantly higher than background) (4 hr after treatment, array of about 12,000 genes): roughly 700 genes
transcripts of Cul1 (at 1 hr): increased
transcripts of EGR1 (at 1 hr): increased
transcripts of USF1 (at 1 hr): increased
transcripts of c-Fos (at 1 hr): increased
Jun B transcript (at 4 hrs): increased
Ratio of BrEA treated cells compared to control cells (transcript level) (gene ATF3 (Hs.460)): 5.3
Ratio of BrEA treated cells compared to control cells (transcript level) (gene ATP2B1 (Hs.78546)): 5.4
Ratio of BrEA treated cells compared to control cells (transcript level) (gene DUSP5 (Hs.2128)): 10.2
Ratio of BrEA treated cells compared to control cells (transcript level) (gene EHD1 (Hs.155119)): 9.7
Ratio of BrEA treated cells compared to control cells (transcript level) (gene GG2-1 (Hs.17839)): 10.3
Ratio of BrEA treated cells compared to control cells (transcript level) (gene GRO2 (Hs.75765)): 9.6
Ratio of BrEA treated cells compared to control cells (transcript level) (gene GRO3 (Hs.89690)): 124.7
Ratio of BrEA treated cells compared to control cells (transcript level) (gene HIVEP2 (Hs.75063)): 6.6
Ratio of BrEA treated cells compared to control cells (transcript level) (gene HSPA1B (Hs.274402)): 7.8
Ratio of BrEA treated cells compared to control cells (transcript level) (gene IL1B (Hs.126256)): 27.5
Ratio of BrEA treated cells compared to control cells (transcript level) (gene IL1RN (Hs.81134)): 53.0
Ratio of BrEA treated cells compared to control cells (transcript level) (gene IL15RA (Hs.12503)): 7.6
Ratio of BrEA treated cells compared to control cells (transcript level) (gene IL23A (Hs.98309)): 131.8
Ratio of BrEA treated cells compared to control cells (transcript level) (gene INHBA (Hs.727)): 21.5
Ratio of BrEA treated cells compared to control cells (transcript level) (gene KIAA1376 (Hs.24684)): 7.7
Ratio of BrEA treated cells compared to control cells (transcript level) (gene KIAA1726 (Hs.164719)): 6.9
Ratio of BrEA treated cells compared to control cells (transcript level) (gene LOC51285 (Hs.27018)): 5.9
Ratio of BrEA treated cells compared to control cells (transcript level) (gene MACS (Hs.75607)): 30.0
Ratio of BrEA treated cells compared to control cells (transcript level) (gene MAIL (Hs.301183)): 25.5
Ratio of BrEA treated cells compared to control cells (transcript level) (gene MAP3K5 (Hs.151988)): 7.1
Ratio of BrEA treated cells compared to control cells (transcript level) (gene MGC5618 (Hs.177781)): 32.0
Ratio of BrEA treated cells compared to control cells (transcript level) (gene NAF1 (Hs.109281)): 6.4
Ratio of BrEA treated cells compared to control cells (transcript level) (gene NFKBIA (Hs.81328)): 11.3
Ratio of BrEA treated cells compared to control cells (transcript level) (gene OLR1 (Hs.77729)): 26.1
Ratio of BrEA treated cells compared to control cells (transcript level) (gene PBEF (Hs.239138)): 9.2
Ratio of BrEA treated cells compared to control cells (transcript level) (gene PIM2 (Hs.80205)): 14.5
Ratio of BrEA treated cells compared to control cells (transcript level) (gene PKIG (Hs.3407)): 5.4
Ratio of BrEA treated cells compared to control cells (transcript level) (gene PTX3 (Hs.2050)): 1348.4
Ratio of BrEA treated cells compared to control cells (transcript level) (gene REV3L (Hs.115521)): 5.3
Ratio of BrEA treated cells compared to control cells (transcript level) (gene RGS16 (Hs.183601)): 29.2
Ratio of BrEA treated cells compared to control cells (transcript level) (gene RIPK2 (Hs.103755)): 6.6
Ratio of BrEA treated cells compared to control cells (transcript level) (gene SCYA1 (Hs.72918)): 40.4
Ratio of BrEA treated cells compared to control cells (transcript level) (gene SCYA4 (Hs.75703)): 67.3
Ratio of BrEA treated cells compared to control cells (transcript level) (gene SCYA8 (Hs.271387)): 7.0
Ratio of BrEA treated cells compared to control cells (transcript level) (gene SCYA20 (Hs.75498)): 174.0
Ratio of BrEA treated cells compared to control cells (transcript level) (gene SERPINE1 (Hs.82085)): 8.4
Ratio of BrEA treated cells compared to control cells (transcript level) (gene SOD2 (Hs.318885)): 39.7
Ratio of BrEA treated cells compared to control cells (transcript level) (gene SSI-1 (Hs.50640)): 16.9
Ratio of BrEA treated cells compared to control cells (transcript level) (gene STAT5A (Hs.167503)): 5.9
Ratio of BrEA treated cells compared to control cells (transcript level) (gene STK2 (Hs.1087)): 9.0
Ratio of BrEA treated cells compared to control cells (transcript level) (gene TNFAIP2 (Hs.101382)): 17.4
Ratio of BrEA treated cells compared to control cells (transcript level) (gene TNFAIP3 (Hs.211600)): 5.1
Ratio of BrEA treated cells compared to control cells (transcript level) (gene TNFAIP6 (Hs.29352)): 1733.0
Ratio of BrEA treated cells compared to control cells (transcript level) (gene TRAF1 (Hs.2134)): 15.0
Ratio of BrEA treated cells compared to control cells (transcript level) (gene TRG@ (Hs.112259)): 17.4
